These results are taken from EP0492930A2, “Transdermal delivery of dobutamine” (ELI LILLY AND COMPANY, priority 1990, dated 1992).

Molecules are shown by their SMILES.

This assay deals with male beagle dogs. Briefly: In vivo transdermal delivery: cardiac contractility change in anesthetized dogs. The procedure:
To corroborate the in vitro results obtained using formulations of the present invention, the ability of the present formulation to provide transdermal delivery of dobutamine lactobionate through the skin of a living dog was also studied.
Two male beagle dogs were anesthetized with 100 mg/kg of sodium phenobarbitol and prepared for monitoring of electrocardiogram, contractile tension, heart rate and mean arterial pressure. Dobutamine lactobionate was administered by an i.v. bolus (4, 8 and 16 mcg/kg). After each animal's response returned to baseline, 1.0 ml of a formulation containing 218.9 mg of dobutamine lactobionate (100 mg equivalents of dobutamine free base), 2.0 mg of sodium bisulfite, 10.0 mg of n-decyl methyl sulfoxide in 1 ml of water was applied to a 25 cm² shaved area in the groin-abdominal region of each dog. Cardiac contractility changes in each dog were then monitored for the next 3 to 5 hours.
Column 2 discloses the time elapsed from the time the formulation was applied and Column 3 discloses the percent change in contractility (from baseline) observed at the time value shown in Column 2.

As to `CC(CCc1ccc(O)cc1)NCCc1ccc(O)c(O)c1` (racemic) [dobutamine lactobionate, (±)-N-[3-(4-hydroxyphenyl)-1-methylpropyl]-2-(3,4-dihydroxyphenyl)ethylamine], the “% Change In Contractility” value by setting is: (Method I (applied directly to skin), 20 min) 30%; (Method I (applied directly to skin), 30 min) 35%; (Method I (applied directly to skin), 60 min) 48%; (Method I (applied directly to skin), 90 min) 21%; (Method I (applied directly to skin), 120 min) 16%; (Method I (applied directly to skin), 180 min) 0%. Further, the “% Change In Contractility” value (Method I (applied directly to skin, covered with plastic film), 10 min, 1.0 ml formulation (218.9 mg lactobionate, 10.0 mg n-decyl methyl sulfoxide) on 25 cm² shaved skin, change from baseline) turned out to be 16%; the “% Change In Contractility” value (Method II (cellulose triacetate polymer patch), 10 min, 1.0 ml formulation (218.9 mg lactobionate, 10.0 mg n-decyl methyl sulfoxide), change from baseline) is given as 10%; the “% Change In Contractility” value (Method II (patch), 20 min) turned out to be 26%; the “% Change In Contractility” value (Method II (patch), 30 min) amounted to 24%; the “% Change In Contractility” value (Method II (patch), 60 min) is recorded as 36%; the “% Change In Contractility” value (Method II (patch), 90 min) is 41%. For the same molecule, the “% Change In Contractility” value runs as follows: (Method II (patch), 120 min) 33%; (Method II (patch), 150 min) 25%; (Method II (patch), 180 min) 27%; (Method II (patch), 210 min) 22%; (Method II (patch), 240 min) 9%; (Method II (patch), 270 min) 9%. Also, the “% Change In Contractility” value (Method II (patch), 300 min) is given as 11%.
